{
  "source": "patent US7879115B2",
  "about": "“Method for using a static electric field to induce crystallization and to control crystal form” (Intellectual Ventures Holding 19, LLC, priority 2004, dated 2011)",
  "key": {"[1]": {"experiment": "Static (DC) electric field induced nucleation of aged supersaturated aqueous solutions; polymorph by x-ray powder diffraction", "type": "physicochemical", "details": "for percent of the exposed solutions that nucleated within the 10-minute exposure time: 6×10^5 V/m DC field, γ glycine; for timescale on which macroscopic crystals form: supersaturated aqueous solution subjected to static electric field", "description": "Great care was taken to exclude dust from samples. Supersaturated solutions were generated by heating the tubes to 62-64° C. and holding them at that temperature in an ultrasonicator overnight.\nA chamber was constructed consisting of two brass electrodes separated by a 5 mm insulating gap, with a hole drilled down through the center, parallel to the gap-electrode interface, with a diameter large enough to accommodate the test tube, to create a high voltage chamber. Test tubes containing the aged solutions were placed in the high voltage chamber.\nA DC voltage was applied across the electrodes, large enough to produce electric fields in the range of 400,000 to 800,000 V/m. Tests tubes containing the aged solutions were placed in the high-voltage chamber. […] If crystals formed in the test tubes, the crystals were removed from the solution and dried. The structure of these crystals was analyzed by grinding up the crystal into a powder and obtaining an x-ray powder diffraction pattern.\n(§1) The supersaturated solutions were in the concentration range of 5.5 to 6.0 molal. […] These solutions had supersaturations (SS) ranging from 1.85 to 2.0; SS=c/csat, where csat is the saturation concentration.\nSolutions were aged for 2 to 5 weeks and exposed to a 6×10^5 V/m DC field for 10 minutes. Semi-cylindrical electrodes were constructed from a 5 cm×5 cm×5.5 cm block of brass, with the center drilled out so that the sample tubes would fit snugly, and then split in half and material removed to create a 5 mm gap, as shown in FIG. 1. […] All sharp edges were rounded in the actual electrodes. The electrodes are insulated and held firmly in position by Delrin plates, screwed together to make a covered box, with 5 mm thick spacers to hold the cylindrical electrodes at the proper spacing. There are two long narrow gaps in the insulation, matching the electrode gap 20, so that most of the length of the sample tube is visible from either side, and there is a small hole in the bottom insulating plate, with a mount for an optical fiber. A Glassman EH regulated power supply provided 0-15 kV DC.\nA low power monitoring continuous-wave laser beam at a wavelength of 532 nm, defocused in one direction with a cylindrical lens to generate a pencil-shaped beam, was directed through the electrode gap 20 and illuminated the length of the sample tube. The transmitted light was imaged on white paper. Light scattered perpendicular to the beam was collected with an optical fiber attached at the bottom of the cell and monitored with a power meter.\n(§2) Crystals formed in the test tubes were removed from the solution and dried. The structure of these crystals was analyzed by grinding up the crystal into a powder and obtaining an x-ray powder diffraction pattern."}, "[2]": {"description": "as §1, §2\nTowler, C. S. et al., Journal of the American Chemical Society, Vol. 126, pp. 13347-13353 (2004)."}, "[3]": {"details": "supersaturated aqueous solutions", "description": "Such species, when subjected to a DC electric field, will tend to migrate toward the electrode with the opposite charge, effectively increasing the supersaturation near the electrode, which in itself can be responsible for inducing nucleation."}, "[4]": {"details": "room temperature, approximately 20° C., water; cited from earlier work"}, "[5]": {"details": "average charge on a glycine molecule is zero; cited from earlier work"}},
  "note": "Read-outs that look alike come from different tables or passages of the source.",
  "data": [
    {"smiles": "NCC(=O)O", "note": "[glycine]", "values": [
      {"measurement": "percent of the exposed solutions that nucleated within the 10-minute exposure time", "setting": "[1]; 1.85 SS, after 16 days aging", "value": 24, "unit": "%"},
      {"measurement": "percent of the exposed solutions that nucleated within the 10-minute exposure time", "setting": "[1]; 1.9-2.0 SS, after 14 days aging", "value": 33, "unit": "%"},
      {"measurement": "percent of the exposed solutions that nucleated within the 10-minute exposure time", "setting": "[1]; 1.9-2.0 SS, after 36 days aging", "value": 40, "unit": "%"},
      {"measurement": "% samples mixed α + γ", "setting": "[1]; SS 1.85, DC field", "value": 0, "unit": "%"},
      {"measurement": "% samples pure α", "setting": "[1]; SS 1.85, DC field", "value": 50, "unit": "%"},
      {"measurement": "% samples pure γ", "setting": "[1]; SS 1.85, DC field", "value": 50, "unit": "%"},
      {"measurement": "% samples mixed α + γ", "setting": "[1]; SS 1.9–2.0, DC field", "value": 0, "unit": "%"},
      {"measurement": "% samples pure α", "setting": "[1]; SS 1.9–2.0, DC field", "value": 0, "unit": "%"},
      {"measurement": "% samples pure γ", "setting": "[1]; SS 1.9–2.0, DC field", "value": 100, "unit": "%"},
      {"measurement": "time until crystallization observed", "setting": "[1]; electric field strength 600,000 V/m", "value": "30 to 90", "unit": "min"},
      {"measurement": "induction of nucleation by field exposure", "setting": "[1]; field of 400,000 V/m, aged solutions", "value": "not sufficient to induce nucleation"},
      {"measurement": "timescale on which macroscopic crystals form", "setting": "[1]", "value": "hours"},
      {"measurement": "Spontaneous nucleation rate for a ten-minute time window", "setting": "[2]; 1.85 SS, no field", "value": 0.02, "unit": "%"},
      {"measurement": "% samples mixed α + γ", "setting": "[2]; SS 1.85, Spontaneous", "value": 0, "unit": "%"},
      {"measurement": "% samples pure α", "setting": "[2]; SS 1.85, Spontaneous", "value": 86, "unit": "%"},
      {"measurement": "% samples pure γ", "setting": "[2]; SS 1.85, Spontaneous", "value": 14, "unit": "%"},
      {"measurement": "% samples mixed α + γ", "setting": "[2]; SS 1.9–2.0, Spontaneous", "value": 27, "unit": "%"},
      {"measurement": "% samples pure α", "setting": "[2]; SS 1.9–2.0, Spontaneous", "value": 13, "unit": "%"},
      {"measurement": "% samples pure γ", "setting": "[2]; SS 1.9–2.0, Spontaneous", "value": 60, "unit": "%"},
      {"measurement": "pH of aqueous glycine solutions exposed to DC fields", "setting": "[3]", "value": "6.4-6.5"},
      {"measurement": "saturation concentration csat", "setting": "[4]", "value": 3.0, "unit": "molal"},
      {"measurement": "isoelectric point (pH)", "setting": "[5]", "value": 6.0}
    ]},
    {"smiles": "C[C@H](N)C(=O)O", "note": "[L-alanine]", "values": [
      {"measurement": "timescale on which macroscopic crystals form", "setting": "[1]", "value": "minutes"}
    ]}
  ]
}
